Laboratory results reported in patent US10167256B2, “Psychotrophic agents and uses thereof” (LB PHARMACEUTICALS INC., priority 2016, dated 2019).

What was measured:
muscarinic receptors = details: cited from earlier work
5-HT2a receptor = 5-HT2a receptor (Homo sapiens (Human), UniProt P28223); details: cited from earlier work
D4 receptor = D4 receptor (Homo sapiens (Human), UniProt P21917); details: cited from earlier work
D5 receptor = D5 receptor (Homo sapiens (Human), UniProt P21918); details: cited from earlier work
in vitro = details: PAMPA
[1] = 2014 study, 30 psychiatric drugs; cited from earlier work
D1 receptor = D1 receptor (Homo sapiens (Human), UniProt P21728); details: cited from earlier work
sigma sites = details: cited from earlier work
[2] = system: histamine receptor subtypes; details: cited from earlier work
[3] = PAMPA
[4] = system: serotonin receptor subtypes; details: cited from earlier work
[5] = system: alpha-adrenergic receptor subtypes; details: cited from earlier work
[6] = system: rats dosed with amphetamine; experiment: Amphetamine-induced Locomotor Activity (LMA) assay; format: in vivo; details: 30 mg/kg orally, 6 hours post dosing, total ambulatory distance over 1 hour
Protocol: Efficacy of Compounds 102 and 103 was studied in rats in an amphetamine-induced Locomotor Activity (LMA) assay, a measure of positive aspects of the PANSS scale. In the LMA assay rats were dosed with amphetamine (Amp, 1 mg/kg, s.c.), causing excessive movement, in a cage with sensors that monitored how far each rat moved.
Distance moved, over the course of an hour, was measured 6 hours post dosing for Compounds 102 and 103 and amisulpride-risperidone was dosed 1 hour prior to measurement. The endpoint of this study was total ambulatory distance (the distance traveled by each animal in the cage). Total ambulatory distance data from this amphetamine induced LMA study are summarized in FIG. 2 (*: p<0.01; *: p<0.05).

α-2C(h) = α-2C(h) (Homo sapiens (Human), UniProt P18825); experiment: Reference ligand displacement, α2C; format: binding; details: yohimbine
Protocol: (§1) The ability of Compound 102 and 103 to bind α2 (non-selective), α2A, α2B, α2C, 5-HT2A (agonist), 5-HT2A (antagonist), D2L, D2S, and D3 was measured at concentrations ranging from 10×10^−5 to 10×10^−9 M and measuring displacement of reference ligands (prazosin for α2 (non-selective), yohimbine for α2A, α2B and α2C, DOI ([2,5-dimethoxy-4-iodophenyl]-2-aminopropane) for 5-HT2A (agonist), ketanserine for 5-HT2A (antagonist), butaclamol for D2L, 7-OH-DPAT for D2S, and (+) blutaclamol for D3). bound to the respective isolated receptor.

α2 (non-selective) = experiment: Reference ligand displacement, α2 (non-selective); format: binding; details: α-2A (non-selective); reference ligand prazosin
Protocol: as §1

D2S = D2S (Homo sapiens (Human), UniProt P14416); experiment: Reference ligand displacement, D2S; format: binding; details: 7-OH-DPAT
Protocol: as §1

5-HT2a (antagonist) = 5-HT2a (antagonist) (Homo sapiens (Human), UniProt P28223); experiment: Reference ligand displacement, 5-HT2A (antagonist); format: binding; details: ketanserine
Protocol: as §1

D2L = D2L (Homo sapiens (Human), UniProt P14416); experiment: Reference ligand displacement, D2L; format: binding; details: butaclamol
Protocol: as §1

5-HT7 = 5-HT7 (Homo sapiens (Human), UniProt P34969); experiment: Reference ligand displacement, 5-HT7; format: binding
5-HT2a (agonist) = 5-HT2a (agonist) (Homo sapiens (Human), UniProt P28223); experiment: Reference ligand displacement, 5-HT2A (agonist); format: binding; details: DOI
Protocol: as §1

PCP-treated rats = experiment: Novel Object Recognition (NOR) assay, sub-chronic PCP; format: in vivo; details: PO; for difference between novel and familiar object exploration time: 3 hours post-dose, all doses save one; for known object exploration behavior in rats treated with PCP: compared with untreated rats, amisulpride and risperidone
Protocol: Efficacy of Compounds 102 and 103 was evaluated in rats in a Novel Object Recognition (NOR) assay, a well-established model recapitulating cognitive and negative aspects of the PANSS scale of schizophrenia. In this assay, animals were treated for several weeks with a low dose of phencyclidine (PCP) to impair the ability of the rat to discern between novel and familiar objects. Typically rats, like humans, would spend more time exploring a novel object than a familiar one.
Rats (n=10/group) were dosed with 2 mg/kg intraperitoneal twice a day (i.p., b.i.d.) for seven days followed by 7 days drug free. […] Novel object exploration time was measured for the test subjects from a sub-chronic PCP NOR study in rats (n=10/group). The differences in exploration time between novel (Tnovel¬) and familiar (Tfamliar) objects are depicted in FIG. 1A (*: p<0.05; and *: p<0.01).

D3 = D3 (Homo sapiens (Human), UniProt P35462); experiment: Reference ligand displacement, D3; format: binding; details: (+) butaclamol
Protocol: as §1

dopamine D2 receptors [7] = biological target: T1, dopamine D2 receptors (Homo sapiens (Human), UniProt P14416); experiment: Dopamine D2 receptor cell-based assay (calcium fluorescence, dopamine at EC80)
Protocol: Dopamine D2 receptor cells were seeded in a half a black, clear-bottomed 96 well plate. At a density of 15,000 cells/well to a volume of 25 μL and were left to incubate overnight. Calcium 5 dye in HEPES buffered HBSS (Hanks' balanced salt solution) was prepared and 10 μL was added to each well and the mixture was left to sit at 37° C. for 1 hour. After equilibration, 5 μL of the test compound and controls were added to the wells and incubated at room temperature for 10 minutes.

α-2B(h) = α-2B(h) (Homo sapiens (Human), UniProt P18089); experiment: Reference ligand displacement, α2B; format: binding; details: yohimbine
Protocol: as §1

dopamine D2 receptors [8] = biological target: T1, dopamine D2 receptors; experiment: Dopamine D2 receptor membrane preparation, 3H spiperone binding; details: membrane based assay, 0.1 nM 3H spiperone
Protocol: Radioactivity was measured using a Packard Topcount.

α-2A(h) = α-2A(h) (Homo sapiens (Human), UniProt P08913); experiment: Reference ligand displacement, α2A; format: binding; details: yohimbine
Protocol: as §1

D2S, sequence (P14416 other isoform, or with tags, fused parts or gaps): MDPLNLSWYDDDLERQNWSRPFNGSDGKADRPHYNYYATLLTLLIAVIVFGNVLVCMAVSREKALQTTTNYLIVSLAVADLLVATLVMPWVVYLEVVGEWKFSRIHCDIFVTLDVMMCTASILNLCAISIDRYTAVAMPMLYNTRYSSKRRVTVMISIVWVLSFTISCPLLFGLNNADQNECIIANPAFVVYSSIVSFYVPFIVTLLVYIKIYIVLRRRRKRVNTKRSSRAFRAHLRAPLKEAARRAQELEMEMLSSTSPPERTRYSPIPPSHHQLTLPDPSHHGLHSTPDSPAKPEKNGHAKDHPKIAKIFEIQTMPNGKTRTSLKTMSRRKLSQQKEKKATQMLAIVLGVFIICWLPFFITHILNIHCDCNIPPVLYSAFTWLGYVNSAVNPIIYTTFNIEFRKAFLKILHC
D2L, sequence (P14416 whole entry): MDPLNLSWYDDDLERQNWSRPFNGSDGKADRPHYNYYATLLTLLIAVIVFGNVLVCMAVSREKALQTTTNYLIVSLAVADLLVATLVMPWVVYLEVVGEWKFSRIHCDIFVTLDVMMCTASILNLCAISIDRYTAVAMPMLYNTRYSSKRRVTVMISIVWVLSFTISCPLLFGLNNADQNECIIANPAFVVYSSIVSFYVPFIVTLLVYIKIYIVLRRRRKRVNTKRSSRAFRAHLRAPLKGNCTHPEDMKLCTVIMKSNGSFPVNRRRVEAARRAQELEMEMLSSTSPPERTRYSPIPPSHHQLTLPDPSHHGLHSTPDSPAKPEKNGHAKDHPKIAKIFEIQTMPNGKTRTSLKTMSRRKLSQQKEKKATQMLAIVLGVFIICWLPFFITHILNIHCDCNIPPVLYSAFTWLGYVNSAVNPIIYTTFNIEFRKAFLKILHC
D3, sequence (P35462 whole entry): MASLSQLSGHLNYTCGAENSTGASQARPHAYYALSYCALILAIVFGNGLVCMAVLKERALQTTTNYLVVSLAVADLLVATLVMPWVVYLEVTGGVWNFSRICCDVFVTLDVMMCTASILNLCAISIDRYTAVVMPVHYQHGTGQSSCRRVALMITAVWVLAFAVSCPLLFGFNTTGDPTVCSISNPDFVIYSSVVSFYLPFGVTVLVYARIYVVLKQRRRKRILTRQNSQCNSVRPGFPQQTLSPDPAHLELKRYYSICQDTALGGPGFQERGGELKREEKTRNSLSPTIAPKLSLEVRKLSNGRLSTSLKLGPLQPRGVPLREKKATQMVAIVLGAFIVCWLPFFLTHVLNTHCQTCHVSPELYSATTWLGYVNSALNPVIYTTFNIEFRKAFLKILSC
5-HT2a (agonist), sequence (P28223 whole entry, species assumed): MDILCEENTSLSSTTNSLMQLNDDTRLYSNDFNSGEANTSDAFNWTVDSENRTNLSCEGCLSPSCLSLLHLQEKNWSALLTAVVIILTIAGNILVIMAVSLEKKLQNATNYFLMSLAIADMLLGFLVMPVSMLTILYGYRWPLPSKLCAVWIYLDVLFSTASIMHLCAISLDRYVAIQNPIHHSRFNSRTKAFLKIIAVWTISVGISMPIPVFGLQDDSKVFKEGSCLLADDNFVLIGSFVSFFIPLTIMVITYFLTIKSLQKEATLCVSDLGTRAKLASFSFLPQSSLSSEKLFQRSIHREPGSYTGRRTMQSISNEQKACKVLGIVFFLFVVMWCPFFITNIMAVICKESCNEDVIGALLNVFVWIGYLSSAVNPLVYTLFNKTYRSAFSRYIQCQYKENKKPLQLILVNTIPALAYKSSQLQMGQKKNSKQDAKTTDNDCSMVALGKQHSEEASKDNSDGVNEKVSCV
5-HT2a (antagonist), sequence (P28223 whole entry, species assumed): as above
T1 sequence (P14416 whole entry): as the sequence (P14416 whole entry) above
α-2C(h), sequence (P18825 whole entry): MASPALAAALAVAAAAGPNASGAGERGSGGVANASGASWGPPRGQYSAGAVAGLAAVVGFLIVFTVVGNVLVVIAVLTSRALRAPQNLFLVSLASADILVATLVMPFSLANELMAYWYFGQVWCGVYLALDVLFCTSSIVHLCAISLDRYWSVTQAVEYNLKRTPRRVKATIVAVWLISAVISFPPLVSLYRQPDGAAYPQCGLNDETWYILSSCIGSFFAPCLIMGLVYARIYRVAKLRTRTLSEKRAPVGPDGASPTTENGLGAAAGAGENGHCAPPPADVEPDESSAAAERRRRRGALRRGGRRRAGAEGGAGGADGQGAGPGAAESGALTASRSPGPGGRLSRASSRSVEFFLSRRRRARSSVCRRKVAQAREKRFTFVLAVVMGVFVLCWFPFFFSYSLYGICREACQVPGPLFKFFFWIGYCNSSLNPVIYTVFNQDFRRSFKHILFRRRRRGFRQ
α-2B(h), sequence (P18089 whole entry): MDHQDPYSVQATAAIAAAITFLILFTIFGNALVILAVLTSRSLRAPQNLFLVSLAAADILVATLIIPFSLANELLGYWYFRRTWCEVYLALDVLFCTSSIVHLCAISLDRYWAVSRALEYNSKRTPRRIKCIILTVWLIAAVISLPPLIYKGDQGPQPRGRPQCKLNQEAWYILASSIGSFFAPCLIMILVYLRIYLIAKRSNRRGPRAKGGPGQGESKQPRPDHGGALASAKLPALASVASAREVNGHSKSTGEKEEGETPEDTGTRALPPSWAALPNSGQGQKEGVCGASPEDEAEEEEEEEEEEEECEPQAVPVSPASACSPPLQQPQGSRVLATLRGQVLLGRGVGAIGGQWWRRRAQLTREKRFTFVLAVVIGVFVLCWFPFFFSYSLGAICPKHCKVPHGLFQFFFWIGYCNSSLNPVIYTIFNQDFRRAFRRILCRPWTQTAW
5-HT7, sequence (P34969 whole entry, species assumed): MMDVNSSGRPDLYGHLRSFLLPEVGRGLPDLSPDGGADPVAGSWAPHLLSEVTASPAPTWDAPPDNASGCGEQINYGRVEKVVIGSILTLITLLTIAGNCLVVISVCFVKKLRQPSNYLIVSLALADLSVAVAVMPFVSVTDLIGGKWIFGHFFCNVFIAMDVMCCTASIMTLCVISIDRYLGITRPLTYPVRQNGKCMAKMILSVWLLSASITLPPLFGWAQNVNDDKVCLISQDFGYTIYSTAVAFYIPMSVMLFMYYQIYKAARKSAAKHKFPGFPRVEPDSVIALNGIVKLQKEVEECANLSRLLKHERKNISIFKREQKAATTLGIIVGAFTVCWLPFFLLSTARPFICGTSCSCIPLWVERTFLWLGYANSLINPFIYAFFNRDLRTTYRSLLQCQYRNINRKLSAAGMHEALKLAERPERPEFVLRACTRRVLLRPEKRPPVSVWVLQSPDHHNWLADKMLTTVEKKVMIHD
α-2A(h), sequence (P08913 whole entry): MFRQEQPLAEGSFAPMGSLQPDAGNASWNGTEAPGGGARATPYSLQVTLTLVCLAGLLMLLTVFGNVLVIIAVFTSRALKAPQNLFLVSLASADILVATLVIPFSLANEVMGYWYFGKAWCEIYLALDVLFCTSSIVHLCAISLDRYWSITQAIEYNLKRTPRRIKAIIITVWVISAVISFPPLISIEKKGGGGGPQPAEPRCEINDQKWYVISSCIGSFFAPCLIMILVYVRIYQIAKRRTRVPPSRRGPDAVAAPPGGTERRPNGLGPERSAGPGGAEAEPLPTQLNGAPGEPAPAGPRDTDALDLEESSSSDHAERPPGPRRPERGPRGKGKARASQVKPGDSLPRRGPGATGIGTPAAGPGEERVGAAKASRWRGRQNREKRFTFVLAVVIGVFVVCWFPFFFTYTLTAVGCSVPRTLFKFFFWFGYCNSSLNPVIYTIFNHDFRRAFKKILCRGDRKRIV
D1 receptor, sequence (P21728 whole entry): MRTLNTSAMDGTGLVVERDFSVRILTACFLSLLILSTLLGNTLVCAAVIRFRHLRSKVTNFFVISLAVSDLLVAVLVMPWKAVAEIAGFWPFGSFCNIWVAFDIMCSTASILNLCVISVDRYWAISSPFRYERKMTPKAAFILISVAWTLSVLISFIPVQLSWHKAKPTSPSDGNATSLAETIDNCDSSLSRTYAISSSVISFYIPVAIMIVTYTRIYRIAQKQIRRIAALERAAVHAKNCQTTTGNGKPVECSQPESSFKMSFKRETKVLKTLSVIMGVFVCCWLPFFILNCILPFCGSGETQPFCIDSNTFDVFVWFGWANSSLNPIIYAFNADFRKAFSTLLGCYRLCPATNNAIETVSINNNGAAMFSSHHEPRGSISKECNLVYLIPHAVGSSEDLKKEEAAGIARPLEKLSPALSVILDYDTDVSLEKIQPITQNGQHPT
D4 receptor, sequence (P21917 whole entry): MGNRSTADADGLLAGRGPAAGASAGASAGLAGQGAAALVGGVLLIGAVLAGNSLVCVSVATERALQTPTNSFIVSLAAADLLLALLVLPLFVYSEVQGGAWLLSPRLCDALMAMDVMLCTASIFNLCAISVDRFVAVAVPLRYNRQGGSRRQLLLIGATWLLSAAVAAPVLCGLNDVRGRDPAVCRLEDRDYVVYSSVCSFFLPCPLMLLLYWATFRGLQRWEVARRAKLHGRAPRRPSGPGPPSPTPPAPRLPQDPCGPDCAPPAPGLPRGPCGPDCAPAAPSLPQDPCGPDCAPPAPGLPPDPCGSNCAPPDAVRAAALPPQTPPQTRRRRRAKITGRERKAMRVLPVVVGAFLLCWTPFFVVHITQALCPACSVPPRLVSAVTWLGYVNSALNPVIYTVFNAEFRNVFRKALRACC

| SMILES | Papp (in vitro; pH 5) | Permeability (cm/s) pH 7.4 [3] | normalized amphetamine hyperactivity compared to amisulpride [6] | IC50 (α2 (non-selective)) | Ki (α2 (non-selective)) | IC50 (D2S) | Ki (D2S) | IC50 (5-HT2a (antagonist)) | Ki (5-HT2a (antagonist)) | IC50 (D2L) | Ki (D2L) | Papp (in vitro; pH 7.4) | IC50 (5-HT2a (agonist)) | Ki (5-HT2a (agonist)) | difference between novel and familiar object exploration time (PCP-treated rats) | known object exploration behavior in rats treated with PCP (PCP-treated rats) | IC50 (D3) | Ki (D3) | other results |
| --- | --- | --- | --- | --- | --- | --- | --- | --- | --- | --- | --- | --- | --- | --- | --- | --- | --- | --- | --- |
| CCN1CCCC1CNC(=O)c1cc(S(=O)(=O)CC)c(N)cc1OC (stereo not shown) [Amisulpride, 4-amino-N-(((1-ethyl-2-pyrrolidinyl)methyl)-5-(ethylsulfonyl))-2-methoxybenzamide] | 0.00024 ×10⁻⁶ cm/s | 2.4 × 10^−11 cm/s |  |  |  |  |  |  |  |  |  |  |  |  |  |  |  |  | affinity for muscarinic receptors (muscarinic receptors): low affinity; activity at the 5-HT2a receptor (5-HT2a receptor): not noted to have any activity; affinity for D4 receptor subtype (D4 receptor): without any affinity; affinity for D5 receptor subtype (D5 receptor): without any affinity; passive diffusion across a PAMPA membrane (Pe) [1]: lowest of 30 psychiatric drugs tested; affinity for D1 receptor subtype (D1 receptor): without any affinity; affinity for sigma sites (sigma sites): low affinity; affinity for histamine receptor subtypes [2]: low affinity; affinity for serotonin receptor subtypes [4]: low affinity; affinity for alpha-adrenergic receptor subtypes [5]: low affinity |
| CCN1CCCC1CNC(=O)c1cc(S(=O)(=O)CC)c(NC)cc1OC (stereo not shown) [Compound 102] | 0.021 ×10⁻⁶ cm/s |  | statistically superior to that of amisulpride | 95 nM | 41 nM | 8.4 nM | 3.4 nM | 890 nM | 490 nM | 2.7 nM | 0.66 nM | 0.0052 ×10⁻⁶ cm/s | 270 nM | 200 nM | increased the difference between novel and familiar object exploration time | able to restore known object exploration behavior in rats treated with PCP to levels similar to untreated rats | 11 nM | 2.5 nM | IC50 (α-2C(h)): 790 nM; Ki (α-2C(h)): 240 nM; IC50 (5-HT7): 74 nM; Ki (5-HT7): 27 nM; IC50 (dopamine D2 receptors [7]): 8.9 nM; IC50 (α-2B(h)): 170 nM; Ki (α-2B(h)): 110 nM; IC50 (dopamine D2 receptors [8]): 8.2 nM; IC50 (α-2A(h)): 480 nM; Ki (α-2A(h)): 220 nM |
| CCN1CCC[C@H]1CNC(=O)c1cc(S(=O)(=O)CC)c(NC)cc1OC [Compound 103, ((S)-4-methylamino-N-((1-ethyl-2-pyrrolidinyl)methyl)-5-(ethylsulfonyl))-2-methoxybenzamide] |  |  | statistically indistinguishable from that of amisulpride | 150 nM | 6.7 nM | 1.4 nM | 0.56 nM | 980 nM | 530 nM | 1.7 nM | 0.41 nM |  | 550 nM | 410 nM | increased the difference between novel and familiar object exploration time | able to restore known object exploration behavior in rats treated with PCP to levels similar to untreated rats | 5.5 nM | 1.2 nM |  |
| CC(C)NCC(O)COc1cccc2ccccc12 (stereo not shown) [Promanolol, propanolol] | 0.031 ×10⁻⁶ cm/s |  |  |  |  |  |  |  |  |  |  | 7.8 ×10⁻⁶ cm/s |  |  |  |  |  |  |  |
| CNC(=C[N+](=O)[O-])NCCSCc1ccc(CN(C)C)o1 [Ranitidine, ranitidine] |  | 1.5 × 10^−10 cm/s |  |  |  |  |  |  |  |  |  |  |  |  |  |  |  |  | Permeability (cm/s) pH 5 ([3]; pH 5): 1.1 × 10^−10 cm/s |
